Source: paper PMC9862034, “Novel Antioxidant Peptides from Pearl Shell Meat Hydrolysate and Their Antioxidant Activity Mechanism” (Molecules, 2023)
Converted amounts (≈) assume the structure as drawn. Like-named read-outs stand apart in the source and are kept apart here. No end group written: not given here.

Experiments:
HepG2 cells [1] = format: cell-based
Method: HepG2 cells were seeded in 96-well plates (1 × 10^4 cells/well) and cultured for 48 h. To the AAPH damage group, we added 150 µL of fresh medium containing AAPH (final concentration 0.025–25 mM), and to the control group, we added fresh medium without AAPH. After culturing for 24 h, cell viability was determined by the MTT method. HepG2 cells were seeded in 96-well plates (1 × 10^4 cells/well) and cultured for 24 h. To the sample treated group, we added 150 µL of fresh medium containing samples (0.025–0.2 mg/mL). To the control group and AAPH damage group, we added fresh medium without samples. After treating for 24 h, to the sample treated group and AAPH damage group, we added 50 µL of fresh medium containing AAPH (final concentrations of 0.25 and 10 mM). After culturing for 24 h, cell viability was determined.

HepG2 cells [2] = assay: cells; conditions: for EC50 (cellular antioxidant activity): 1 h
Method: Obtained from National Collection of Authenticated Cell Cultural (Shanghai, China), HepG2 cells between 20 and 35 passages were grown in medium (DMEM supplemented with 10% fetal bovine serum, 1% antibiotic–antimycotic solution) in a 5% CO2 incubator at 37 °C.
Cellular antioxidant activity (CAA) was determined according to the method of Wolfe et al.. HepG2 cells were seeded in 96-well plates (6 × 10^4 cells/well) and cultured for 24 h. DCFH-DA working solution (50 µL, 50 µM) and 50 µL of medium with sample (0.005–0.1 mg/mL) were added in the sample treated group. DCFH-DA working solution (50 µL, 50 µM) and sterile water (50 µL) were added to the control group and the blank group. After incubated for 1 h, the cells were washed with PBS. Then, AAPH working solution (100 µL, […]) was added to the sample treated group and the control group, and fresh medium was added to the blank group. Fluorescence values were determined every 5 min for 1 h at an excitation wavelength of 485 nm and a determination wavelength of 528 nm. […] The CAA unit was calculated by the area of fluorescence curve (AUC), as shown in Equation (3). […] The Trolox equivalent (TEAC µM TE/g peptides) was calculated to represent the CAA value. (3) CAA=[1−(AUCt−AUCo)/(AUCc−AUCo)]×100 where AUCt, AUCc, and AUCo were the fluorescence curve area of the test sample, the control, and the blank group, respectively.

HepG2 cells [3] = test system: HepG2 cells; set-up: method as in 2 sources, ref 23 = [23]; PMID 28764069; doi:10.1016/j.foodchem.2017.05.144; 23. Liang R. Zhang Z. Lin S. Effects of pulsed electric field on intracellular antioxidant activity and antioxidant enzyme regulating capacities of pine nut ( Pinus koraiensis ) peptide QDHCH in HepG2 ||| ref 24 = [24]; PMID 29195889; doi:10.1016/j.foodres.2016.10.023; 24. Wang L. Ding L. Yu Z. Zhang T. Ma S. Liu J. Intracellular ROS scavenging and antioxidant enzyme regulating capacities of corn gluten meal-derived antioxidant peptides in HepG2 cells Food Res. Int.; conditions: related report, pine nut peptide; cited from earlier work
Description: The principle of CAA is that intracellular lipase degrades the fluorescent probe DCFH-DA to DCFH, which is oxidized to fluorescent DCF by intracellular free radicals under AAPH induction, and the antioxidant peptide can protect the probe from oxidation. […] In related reports, ...

With SPSSS [SPSSS] as the compound, how does the “cell viability, 50% cell viability model” value (HepG2 cells [1]; 24 h, 0.2 mg/mL) read?
Its value is 73.52%.

What about the “cell viability, 80% cell viability model” value (HepG2 cells [1]; 24 h, 0.2 mg/mL) of the same compound?
The value was 101.09%.

What about the “EC50 (cellular antioxidant activity)” value (HepG2 cells [2]) of the same compound?
The value was 27 µg/mL.

Which “cell viability, 50% cell viability model” value (HepG2 cells [1]; 24 h, 0.2 mg/mL) does the source give for NSVAA [NSVAA] here?
The value was 70.55%.

And the “cell viability, 80% cell viability model” value (HepG2 cells [1]; 24 h, 0.2 mg/mL)?
The value was 100.09%.

What about the “EC50 (cellular antioxidant activity)” value (HepG2 cells [2]) of the same compound?
The value was 95 µg/mL.

Which “cell viability, 50% cell viability model” value (HepG2 cells [1]; 24 h, 0.2 mg/mL) does the source give for SGTAV [SGTAV] here?
Its value is 73.61%.

And the “cell viability, 80% cell viability model” value (HepG2 cells [1]; 24 h, 0.2 mg/mL)?
The value was 107.43%.

What about the “EC50 (cellular antioxidant activity)” value (HepG2 cells [2]) of the same compound?
Its value is 9 µg/mL.

With GGSIT [GGSIT] as the compound, how does the “cell viability, 50% cell viability model” value (HepG2 cells [1]; 24 h, 0.2 mg/mL) read?
The value was 66.35%.

What about the “cell viability, 80% cell viability model” value (HepG2 cells [1]; 24 h, 0.2 mg/mL) of the same compound?
The value was 96.06%.

What about the “EC50 (cellular antioxidant activity)” value (HepG2 cells [2]) of the same compound?
Its value is 73 µg/mL.

Which “cell viability, 50% cell viability model” value (HepG2 cells [1]; 24 h, 0.2 mg/mL) does the source give for TGVAS [TGVAS] here?
Its value is 64.69%.

What about the “EC50 (cellular antioxidant activity)” value (HepG2 cells [2]) of the same compound?
The value was 37 µg/mL.

With “QDHCH [pine nut peptide of a related report]” as the compound, how does the “EC50 value (cellular antioxidant activity)” value (HepG2 cells [3]) read?
The value was 130 µg/mL.

With `N[C@@H](CCC(=O)N[C@@H](CS)C(=O)NCC(=O)O)C(=O)O` [GSH, Glutathione, reference compound] as the compound, how does the “cell viability, 50% cell viability model” value (HepG2 cells [1]; HepG2, AAPH-induced damage (0.25 mM as printed), sample 0.2 mg/mL 24 h then AAPH 24 h, MTT, AAPH damage group 49.51%) read?
The value was 57.60%.

What about the “cell viability, 80% cell viability model” value (HepG2 cells [1]; HepG2, AAPH-induced damage (10 mM [sic]), sample 0.2 mg/mL 24 h then AAPH 24 h, MTT, AAPH damage group 79.41%) of the same compound?
The value was 92.08%.

And the “CAA Value” (HepG2 cells [2]; HepG2, Trolox equivalent, Trolox as standard antioxidant)?
Its value is 4.593 mM TE/g Peptide.

And the EC50 (HepG2 cells [2]; Homo sapiens, HepG2, 1 h, read-out: EC50 (cellular antioxidant activity))?
Its EC50 is 30 µg/mL (≈ 97.6 µM).

With GGSLT [GGSLT] as the compound, how does the “cell viability, 50% cell viability model” value (HepG2 cells [1]; 24 h, 0.2 mg/mL) read?
Its value is 68.25%.

And the “EC50 (cellular antioxidant activity)” value (HepG2 cells [2])?
The value was 64 µg/mL.
